The text below walks through data of patent US20100119599A1 (ARCHER PHARMACEUTICALS, INC., priority 2006, published 2010).

One assay deals with Aβ1-40. Nature of the assay: Measurement of Aβ1-40 in culture medium of 7W WT APP751 CHO cells by ELISA. In kind it is cell-based, Chinese hamster. The note with it: for Aβ1-40 (% of control): CHO cells that overexpress APP751, zero = below the detection limit of the assay; for activity at 5 µM: Cricetulus griseus, Table 1, 5 μM test compound, CHO cells stably transfected with human APP751, culture medium, ELISA, control DMSO, 0 = no detectable amount. For orientation: In an ELISA, binding on a coated surface is turned into a signal by an enzyme label.

Another assay has as its system Aβ1-42. Nature of the assay: Measurement of Aβ1-42 in culture medium of 7W WT APP751 CHO cells by ELISA. In kind it is cell-based, Chinese hamster. The settings on record: for Aβ1-42 (% of control): CHO cells that overexpress APP751, zero = below the detection limit of the assay; for activity at 5 µM: Cricetulus griseus, Table 1, 5 μM test compound, CHO cells stably transfected with human APP751, culture medium, ELISA, control DMSO, 0 = no detectable amount, read-out: Aβ1-42 (% of control).

Molecules are shown by their SMILES.
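Note: 5 µM test compound but RI-coded compounds at 10 µM for 24 hours.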

Turning to `COc1ccc(NC(=O)CSC2=C(C#N)C(c3ccsc3)C(C(=O)Nc3ccccc3)=C(C)N2)cc1` (stereo not drawn) [RI_59], the “Aβ1-40 (% of control)” value in the assay on Aβ1-40 is listed as 27.7 % of control. The “Aβ1-42 (% of control)” value in the assay with Aβ1-42 is 30.6 % of control.

As to `CCSCCOC(=O)C1=C(C)NC2=C(C(=O)CC(c3cccs3)C2)C1c1cccc(Cl)c1` (stereo not drawn) [ST051570, 2-ethylthioethyl 4-(3-chlorophenyl)-2-methyl-5-oxo-7-(2-thienyl)-1,4,6,7,8-pentahydroquinoline-3-carboxylate], the activity at 5 µM in the assay on Aβ1-40 worked out at 31.7%; in the assay with Aβ1-42, 93.8%.

As to `CC1=C(C(=O)OC2CCCCC2)C(c2ccc3c(c2)OCO3)C2=C(CC(C)(C)CC2=O)N1` (stereo not drawn) [ST216920, cyclohexyl 4-(2H-benzo[3,4-d]1,3-dioxolen-5-yl)-2,7,7-trimethyl-5-oxo-1,4,6,7,8-pentahydroquinoline-3-carboxylate], the activity at 5 µM came out at 1.4% with Aβ1-40 and 3.82% with Aβ1-42.

As to `CC1=C(C(=O)OC2CCCCC2)C(c2ccccc2Cl)C2=C(CC(C)(C)CC2=O)N1` (stereo not drawn) [ST013235, cyclohexyl 4-(2-chlorophenyl)-2,7,7-trimethyl-5-oxo-1,4,6,7,8-pentahydroquinoline-3-carboxylate], the activity at 5 µM in the assay with Aβ1-40 was found to be 0%; in the assay on Aβ1-42 it was 43%.

As to `COc1ccccc1C1C(C(=O)OCCc2ccccc2)=C(C)NC2=C1C(=O)CCC2` (stereo not drawn) [ST015110, 2-phenylethyl 4-(2-methoxyphenyl)-2-methyl-5-oxo-1,4,6,7,8-pentahydroquinoline-3-carboxylate], the activity at 5 µM came out at 42.8% in the assay on Aβ1-40 and 90.1% with Aβ1-42.

As to `CC1=C(C(=O)Nc2ccccc2)C(c2cccs2)C(C#N)=C(SCC(=O)Nc2cccc(C)c2)N1` (stereo not drawn) [RI_91], the “Aβ1-40 (% of control)” value in the assay on Aβ1-40 is 55.9 % of control. Also, in the assay on Aβ1-42, the “Aβ1-42 (% of control)” value was 60.7 % of control.

Turning to `COC(=O)C1=C(C)NC2=C(C(=O)CC(c3ccccc3)C2)C1c1ccc(O)c(OC)c1` (stereo not drawn) [ST013115, methyl 4-(4-hydroxy-3-methoxyphenyl)-2-methyl-5-oxo-7-phenyl-1,4,6,7,8-pentahydroquinoline-3-carboxylate], the activity at 5 µM in the assay with Aβ1-40 came to 94.7%; in the assay with Aβ1-42 it was 65.7%.

Regarding `COC(=O)C1=C(C)NC2=C(C(=O)CC(c3ccccc3Cl)C2)C1c1cccc([N+](=O)[O-])c1` (stereo not drawn) [ST015070, methyl 7-(2-chlorophenyl)-2-methyl-4-(3-nitrophenyl)-5-oxo-1,4,6,7,8-pentahydroquinoline-3-carboxylate], the results for the activity at 5 µM in the assay with Aβ1-40 and in the assay with Aβ1-42 were 65.4% and 97%, respectively.

Turning to `CCOc1cc(C2C(C(=O)OCC(C)C)=C(C)NC3=C2C(=O)CC(c2ccc(Cl)cc2)C3)ccc1O` (stereo not drawn) [ST017117, 2-methylpropyl 7-(4-chlorophenyl)-4-(3-ethoxy-4-hydroxyphenyl)-2-methyl-5-oxo-1,4,6,7,8-pentahydroquinoline-3-carboxylate], the activity at 5 µM with Aβ1-40 stood at 25.7%; in the assay on Aβ1-42, 81.7%.

In the case of `CC1=C(C(=O)OCc2ccccc2)C(c2ccccc2Br)C2=C(CC(C)(C)CC2=O)N1` (stereo not drawn) [ST216854, phenylmethyl 4-(2-bromophenyl)-2,7,7-trimethyl-5-oxo-1,4,6,7,8-pentahydroquinoline-3-carboxylate], the activity at 5 µM is 29.4% in the assay with Aβ1-40 and 60% in the assay with Aβ1-42.

For the compound `CCOC(=O)C1=C(C)NC2=C(C(=O)CCC2)C1c1ccccc1OCc1ccccc1` (stereo not drawn) [ST013216, ethyl 2-methyl-5-oxo-4-[2-(phenylmethoxy)phenyl]-1,4,6,7,8-pentahydroquinoline-3-carboxylate], the activity at 5 µM in the assay with Aβ1-40 worked out at 0%; with Aβ1-42, 88.8%.

For `COc1ccc(C2C(C(=O)OC3CCCCCC3)=C(C)NC3=C2C(=O)CC(C)(C)C3)c(OC)c1OC` (stereo not drawn) [ST024504, cycloheptyl 2,7,7-trimethyl-5-oxo-4-(2,3,4-trimethoxyphenyl)-1,4,6,7,8-pentahydroquinoline-3-carboxylate], the figures for the activity at 5 µM in the assay with Aβ1-40 and in the assay on Aβ1-42 were 0.415% and 0%, respectively.
